Assays:
Hepatitis B virus = test: Compound concentration required to inhibit the viral cell proliferation by 50% against HBV; type: functional, organism-based
[1] = Compound was tested for anti-HIV activity in MT-2/ IIIB cells and the ratio of the drug concentration (ID50) required to inhibit cell growth was reported.; type: functional, Homo sapiens
CCRF-CEM = test: Compound concentration required to inhibit cell growth by 50% against CEM cells; type: functional; details: Homo sapiens, read-out: ID50 (the source's name)
[2] = tested on: Human immunodeficiency virus; test: Compound concentration required to inhibit the viral cell proliferation by 50% against HIV; Range = 0.3-0.5; type: functional, organism-based; details: Human immunodeficiency virus 1
[3] = tested on: Human immunodeficiency virus; test: Compound concentration required to inhibit the viral cell proliferation by 50% against HIV; Range = 0.1-0.2; type: functional, organism-based; details: Human immunodeficiency virus 1
[4] = tested on: Human immunodeficiency virus; test: Compound concentration required to inhibit the viral cell proliferation by 50% against HIV; Range = 2-3; type: functional, organism-based; details: Human immunodeficiency virus 1

| IC50 (CCRF-CEM) | SMILES | EC50 (Hepatitis B virus) | ID50 ratio [1] | EC50 [2] | EC50 [3] | EC50 [4] |
| --- | --- | --- | --- | --- | --- | --- |
| 7000 nM | Nc1nc(=O)n([C@@H]2C=C[C@H](CO)O2)cc1F [ELVUCITABINE] | 8 nM | 9 |  | 100 nM |  |
| 50000 nM | Nc1ccn([C@@H]2CS[C@H](CO)O2)c(=O)n1 [LAMIVUDINE] | 30 nM | >100 |  |  | 2000 nM |

| SMILES | IC50 (CCRF-CEM) | EC50 (Hepatitis B virus) | ID50 ratio [1] | EC50 [2] | EC50 [3] | EC50 [4] |
| --- | --- | --- | --- | --- | --- | --- |
| Nc1nc(=O)n([C@@H]2CC[C@H](CO)O2)cc1F | 67000 nM | 36 nM | >100 | 300 nM |  |  |
